According to patent US7786042B2, “Fluridone as an anti-inflammatory agent” (Universita' Degli Studi Di Genova, priority 2005, dated 2010):

Experiments:
Assay type in all cases: cell-based
human granulocytes [1] = assay: Intracellular calcium [Ca2+]i in granulocytes
Method: Granlocytes were isolated by density gradient centrifugation from the peripheral blood of healthy donors, after informed consent. Contaminating erythrocytes were removed by hypotonic lysis. […] The increase of [cADPR]i in turn induces a progressive rise of [Ca^2+]i, from a basal value of 50±2 nM to 170±25 nM after 10 min from the addition of 10 μM ABA (n=4). […] The increase of the [Ca^2+]i induced by ABA in granulocytes is in turn responsible for activation of several functional activities typical of these cells. The functional effects induced by ABA (at concentrations ranging between 0.2 and 20 μM) in granulocytes include stimulation of the production of reactive oxygen species (ROS), measured through the cytochrome c […] (FIG. 2A), and of nitric oxide (NO), measured as accumulation of nitrite, the end-product of NO […] (FIG. 2B).

human granulocytes [2] = assay: Chemotaxis and chemokinesis of granulocytes
Method: Assays were performed using 96-well ChemoTx system microplates with a 3-μm pore size polycarbonate filter (NeuroProbe Inc., Gaithersburg, USA). Cells (granulocytes or murine microglia) were resuspended at 10^7/ml in HBSS, PBS and 5% albumin, 39:16:1 (chemotaxis buffer, CB). In order to evaluate the chemoattractant effect of ABA, hormone concentrations ranging from 50 nM to 20 μM were added in CB in the bottom wells and 25 μl cell suspensions were placed on top of the filter. To evaluate a possible stimulatory effect of ABA on spontaneous cell movements (chemokinesis), cells were pre-incubated with or without 20 μM ABA, then washed and placed on top of the filter, in contact with CB. Plates were incubated at 37° C. for 60 min and transmigrated cells were recovered and quantified by fluorimetric assay with Cytox Green. The number of transmigrated cells was calculated by comparison of the measured fluorescence with that of a standard curve, obtained by directly placing a serial dilution of cells in the bottom wells. The results of the chemotaxis experiments are expressed as “chemotaxis index” (CI): CI=number of cells migrated towards chemoattractant/number of cells migrated towards CB

human granulocytes [3] = assay: ROS production by granulocytes (cytochrome c assay)
Method: Granulocytes were resuspended at 5×10^6/ml in HBSS and 225 μl of the cell suspension were added to 50 μl of 0.2 mM cytochrome c and were incubated for 30 min at 37° C. in the absence (control) or in the presence of 250 nM or 20 μM ABA, the latter concentration without or with 1 mM EDTA, 20 mM nicotinamide or 0.1 mM 8-Br-cADPR. The amount of ROS (panel A) or of NO (panel B) in the cell supernatant was measured as described in Materials and Methods. The results are expressed as the production relative to control cells, not stimulated with ABA, and are the mean ±SD from 5 experiments.
Release of superoxide (O2^−) by human granulocytes was quantified by a spectrophotometric assay of cytochrome c reduction (Cohen, J Clin Invest 1978). Granulocytes were resuspended in HBSS (at 5×10^6 cells/ml) and 225 μl of the cell suspension was incubated for 30 min at 37° C. with 50 μl cytochrome c (0.2 mM) in the absence (control) or in the presence of ABA at different concentrations. Then, cells were centrifuged at 5,000×g for 15 s and the absorbance of the supernatants was recorded at 550 nm (λmax for reduced cytocrome c).

human granulocytes [4] = assay: NO release by granulocytes (nitrite, Griess)
Method: Granulocytes were resuspended at 5×10^6/ml in HBSS and 225 μl of the cell suspension were added to 50 μl of 0.2 mM cytochrome c and were incubated for 30 min at 37° C. in the absence (control) or in the presence of 250 nM or 20 μM ABA, the latter concentration without or with 1 mM EDTA, 20 mM nicotinamide or 0.1 mM 8-Br-cADPR. […] The results are expressed as the production relative to control cells, not stimulated with ABA, and are the mean ±SD from 5 experiments.
The method used to determine NO released from the cells into the medium exploits the spontaneous conversion of NO to nitrates and the subsequent enzymatic reduction of nitrates to nitrites by the enzyme nitrate reductase. […] Granulocytes (60×10^6/well) or murine microglia cells N9 (2×10^5/well) were incubated in 24-well plates for 60 min at 37° C. in the presence of ABA at different concentrations. The supernatants were then centrifuged and diluted with an equal volume of Griess reagent (0.1% naphthyl-ethylenediamine dihydrochloride in distilled water, 1% sulphanylamide in 5% concentrated H3PO4). Absorbance at 545 nm was estimated after 10 min and the nitrite concentration was calculated using a standard curve, generated in parallel with known amounts of NaNO2.

| SMILES | effect on the ABA-induced increase of [Ca2+]i (human granulocytes [1]) | effect on ABA-induced chemokinesis and chemotaxis (human granulocytes [2]) | effect on ABA-induced ROS production (human granulocytes [3]) | effect on ABA-induced NO production (human granulocytes [4]) | inhibition of the ABA-induced increase of [Ca2+]i (human granulocytes [1]) |
| --- | --- | --- | --- | --- | --- |
| O=C(O)CN(CCOCCOCCN(CC(=O)O)CC(=O)O)CC(=O)O [EGTA] | almost completely prevents |  |  |  |  |
| NC(=O)c1cccnc1 [nicotinamide, reference compound] |  | inhibited | inhibited | inhibited |  |
| N=c1c2nc(Br)n3c2ncn1C1OC(COP(=O)(O)OP(=O)(O)OCC2OC3C(O)C2O)C(O)C1O (stereo not shown) [8-Br-cADPR, reference compound] |  | inhibited | inhibited | inhibited | approx. 60% |
| O=C(O)CN(CCN(CC(=O)O)CC(=O)O)CC(=O)O [EDTA, reference compound] |  |  | inhibited | inhibited |  |
